Marks after values point to notes of the source that are not given here.
Legend:
TA97 = experiment: Ames test, strain TA97; format: cell-based
Experimental: (§1) To assess the mutagenic effects of 5 compounds (IMM-004; IMM-065; IMM-127; IMM-128; IMM-313), the Ames test was performed in 4 strains (TA97; TA98; TA100; TA102). The experiment was conducted with compounds at 4 concentration levels (0.5, 5, 50 and 500 μg/dish). […]

TA97; TA98; TA100; TA102 = experiment: Ames (mutagenesis) test, overall result in 4 strains; format: cell-based; conditions: 0.5, 5, 50 and 500 μg/dish
Experimental: as §1

TA98 = experiment: Ames test, strain TA98; format: cell-based
Experimental: as §1

TA100 = experiment: Ames test, strain TA100; format: cell-based
Experimental: as §1

TA102 = experiment: Ames test, strain TA102; format: cell-based
Experimental: as §1

[1] = tested on: isolated rat hearts subjected to ischemia-reperfusion (I/R); experiment: Isolated heart subjected to ischemia/reperfusion injury (arrhythmia)
Experimental: Based on the pre-electrophysiological cell model screening, we have compared the inhibition ratios of the outward current by reverse-transportation of Na^+/Ca^2+ exchange, and further in vitro tests on isolated rat hearts subjected to ischemia-reperfusion (I/R) were conducted. Prolongation of ventricular arrhythmic, incidence rate of ventricular extrasystole, ventricular tachycardia/ventricular fibrillation (VT/VF) were recorded to evaluate the protective actions of drugs on myocardial injury.
On the basis of above screening results obtained from electrophysiological studies, and the result from comparative study on the research of the inhibitory effect of compounds on reverse mode Na^+/Ca^2+ exchange process, 7 effective compounds were subjected to in vitro study. Among which, IMM-313, IMM-004 and IMM-132 have structures containing chlorine; IMM-127, IMM-128 and IMM-129 have structures containing fluorine; and IMM-065 has a structure containing OH. The experiment performed in the isolated heart subjected to ischemia/reprefusion insult. Prolongation of ventricular arrhythmic, incidence of ventricular extrasystole, ventricular tachycardia/ventricular fibrillation (VT/VF) were recorded in order to evaluate the protective actions of drugs on myocardial injury.

Na^+/Ca^2+ exchanger = target: T1, Na^+/Ca^2+ exchanger (Cavia porcellus, UniProt P48766); experiment: Na^+/Ca^2+ exchange current (INa—Ca), whole-cell patch clamp, intracellular Na^+ overload cell model; format: cell-based, guinea pig
T1 construct: endogenous in cells; host or cells: freshly isolated guinea pig ventricular myocytes
Excerpt: 1. Establishment of Assaying Method for Biphasical Current Detection in Na^+/Ca^2+ Exchange System
Since the reverse mode of Na^+/Ca^2+ exchange process is one of the main mechanisms involving in ischemia/reperfusion insult, it is of great importance to establish cell model represented reverse mode Na^+/Ca^2+ exchange process for the development of drugs against ischemic injury. Therefore, we successfully established cell model of reverse mode Na^+/Ca^2+ exchange system by intracellular Na^+ dialysis technique, and recorded Na^+/Ca^2+ exchange currents by patch clamp experiment.
Internal solution contained certain concentration of NaCl was filled to the microcatheter, and ion exchange process between the cellular and internal solutions was conducted after whole cell currents were recorded by patch clamp. Na^+ contained in the internal solution was dialyzed into the cell; result in the high intracellular Na^+ concentration. After that, the cell was champed at a holding potential of −40 mV, then depolarized to +60 mV and followed by a conversely declining ramp stimuli at a speed of 80 mV·s^−1 and 2 s conditioning pulse, then repolarized to −100 mV with a frequency of 0.05 Hz. Under the stimulation protocol, current from outward to the inward direction was recorded by perfusing modified biphasical Tyrode solution (in which the outward and inward currents can be recorded simultaneously) with the addition of 1 mmol·L^−1 of BaCl2 and 2 mmol·L^−1 of CsCl to block K^+ channels, 1 μmol·L^−1 of verapamil to block L-type Ca^2+ channels, and 20 μmol·L^−1 of ouabain to block Na^+/K^+ ATPase, and 20 mmol·L^−1 of TEA to block potassium channels. The recorded inward currents were presented in a linear manner owing to the blockade of other time-dependent currents. With the increase of intracellular Na^+ level and prolongation of time, the reverse mode of Na^+/Ca^2+ exchange process was activated. […] Under such experimental conditioning, the maximum reverse mode current was recorded 3 min after cell crushed. No significant “run-down” was observed within the record period of 8 minutes. The inward and outward current were inhibited by 5 mmol·L^−1 of Ni^2+ treatment, and the experiment result in two current-voltage curves in the absence or presence of Ni^2+. The Ni^2+ sensitive current, also called electrophysiological Na^+/Ca^2+ exchange current (INa·Ca), was the minus result of two current-voltage curves. The reverse mode potential of INa—Ca was about −20 mV
Male guinea pigs weighting 250˜280 g provided by the Animal Center of the Chinese Academy of Medical Sciences were hammered and sacrificed. The chest was opened and the heart was removed quickly. Fatty tissue and pericardium were removed in a Ca^2+-free solution at 4° C., and heart was sequentially mounted on a Langendorff apparatus. First, the heart was perfused conversely via the aorta for 6 min with Ca^2+-free solution in order to wash out residual blood, then the heart expands and the color of it turns to pink. Then the heart was perfused with Ca^2+-free solution containing 0.1 mg/ml of pronase E, 0.5 mg/ml defatted bovine serum albumin (BSA) and 150 μM Ca^2+ for 2˜3 min, until the heart expanded and became soft. The atrium was removed, and the digested heart was minced with scissors, stirred in a beaker at 37° C. for 5˜10 min. The supernatant was diluted with Ca^2+-free solution containing 0.5 mg/ml BSA and 1.8 mM Ca^2+. The supernatant was placed at room temperature (20˜24° C.) for 1 hr and then subjected to the experiment. During the whole perfusion period, pressure was kept at 70 cmH2O and the temperature of solution was kept at 37° C. with continuously gassed with 95% O2 and 5% CO2.
Rod-shaped cells with clear striations and intact membrane were used. […]

[2] = tested on: arrhythmia caused by ischemia/reperfusion insults in anaesthetic rats; experiment: Ischemia/reperfusion arrhythmia in anaesthetic rats, intravenous injection; format: in vivo, rat
Excerpt: (1) Protective Effects of the Tested Compounds on Myocardial Insults in Rats after Intravenously Injection
Arrhythmic potency induced by myocardial insults was used to assess the potential protective effect of the compounds.

[3] = 10^−6 M, isolated heart ischemia/reperfusion
[4] = Example 1 table, myocardial cell
[5] = screening of 22 candidate compounds

O=c1c2ccc(Cl)cc2[se]n1-c1ccncc1 [IMM-313, 6-chloro-2-(4-pyridyl)-1,2-benz-isoselenazol-3(2H)-one]
TA97 +S9 (TA97; 0.5 μg/dish): 64.67 ± 8.65
TA97 −S9 (TA97; 0.5 μg/dish): 47.33 ± 6.13
TA97 +S9 (TA97; 5 μg/dish): 70.33 ± 4.11
TA97 −S9 (TA97; 5 μg/dish): 38.33 ± 13.09
TA97 +S9 (TA97; 50 μg/dish): 60.00 ± 7.12
TA97 −S9 (TA97; 50 μg/dish): 0
TA97 +S9 (TA97; 500 μg/dish): 0
TA97 −S9 (TA97; 500 μg/dish): 33.33 ± 13.59
mutagenic effect (Ames test) (TA97; TA98; TA100; TA102): No evidence for a mutagenic effect
TA98 +S9 (TA98; 0.5 μg/dish): 49.33 ± 3.86
TA98 −S9 (TA98; 0.5 μg/dish): 100.50 ± 3.50
TA98 +S9 (TA98; 5 μg/dish): 50.33 ± 5.79
TA98 −S9 (TA98; 5 μg/dish): 86.50 ± 5.50
TA98 +S9 (TA98; 50 μg/dish): 47.33 ± 1.25
TA98 −S9 (TA98; 50 μg/dish): 0
TA98 +S9 (TA98; 500 μg/dish): 0
TA98 −S9 (TA98; 500 μg/dish): 87.67 ± 5.25
TA100 +S9 (TA100; 0.5 μg/dish): 99.33 ± 2.49
TA100 −S9 (TA100; 0.5 μg/dish): 68.67 ± 17.33
TA100 +S9 (TA100; 5 μg/dish): 111.33 ± 7.71
TA100 −S9 (TA100; 5 μg/dish): 45.67 ± 6.65
TA100 +S9 (TA100; 50 μg/dish): 106.00 ± 7.48
TA100 −S9 (TA100; 50 μg/dish): 0
TA100 +S9 (TA100; 500 μg/dish): 0
TA100 −S9 (TA100; 500 μg/dish): 16.5 ± 0.5
TA102 +S9 (TA102; 0.5 μg/dish): 250.00 ± 10.00
TA102 −S9 (TA102; 0.5 μg/dish): 215.33 ± 13.91
TA102 +S9 (TA102; 5 μg/dish): 220.00 ± 28.00
TA102 −S9 (TA102; 5 μg/dish): 211.33 ± 18.35
TA102 +S9 (TA102; 50 μg/dish): 265.33 ± 15.43
TA102 −S9 (TA102; 50 μg/dish): 0
TA102 +S9 (TA102; 500 μg/dish): 0
TA102 −S9 (TA102; 500 μg/dish): 177.67 ± 23.33
protective effects on myocardial insults ([1]; 10^−6M, isolated heart): significant protective effects
AAT: arrhythmic occurrence time, Time [1, 3]: 1.67 ± 0.70 min
VF (ventricular fibrillation) Incidence rate (%) [1, 3]: 30* %
VPS (ventricular premature beats) Incidence rate (%) [1, 3]: 20* %
VT (ventricular tachycardia) Incidence rate (%) [1, 3]: 30%
Inhibitory rate of inward INa—Ca (%) (Na^+/Ca^2+ exchanger; [4]): 28%
Inhibitory rate of outward INa—Ca (%) (Na^+/Ca^2+ exchanger; [4]): 50%
Inhibitory rate of inward INa—Ca (%) (Na^+/Ca^2+ exchanger; [5]): 28%
Inhibitory rate of outward INa—Ca (%) (Na^+/Ca^2+ exchanger; [5]): 50* %
incidence and duration of VT, VF, VE / ventricular arrhythmic ([2]; 3 mg/Kg intravenous (femoral vein), rats): no significant effect
rats with heart rate irreversibly reduced within 5 min (died at last) ([2]; 3 mg/Kg intravenous, before ligation, 7/17 rats): 41.2%

Source: patent publication US20060135569A1, “Use of benzisoselenazolone compounds against ischemic myocardial damage” (priority 2002, published 2006)
